Results published in patent publication US8802597B2, “Herbicidal pyrimidines” (E I du Pont de Nemours and Company, priority 2003, dated 2014).
Read-outs that look alike come from different tables or passages of the source.

Assays:
Assay type in all cases: in vivo
[1] = system: purple redstem (Ammannia coccinea); assay: Test E flooded paddy water application; conditions: Flood, 21 days, scale 0 to 100 (0 no effect, 100 complete control)
Procedure, shortened: (§1)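 Weeds sown in sterilized Tama silt loam (2.6% organic matter), greenhouse 29.5/26.7° C, 16-h photoperiod; at 2.0–2.5-leaf stage pots flooded to 3 cm and compound added to paddy water. Visual rating vs untreated controls after 21 days, 0 (no effect) to 100 (complete control).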

[2] = system: transplanted rice seedlings (Oryza sativa cv. ‘Japonica-M202’); assay: Test E flooded paddy water application; conditions: Flood, 21 days, scale 0 to 100 (0 no effect, 100 complete control)
Procedure, shortened: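 Greenhouse pots of Tama silt loam with weeds and rice at 2.0–2.5-leaf stage, flooded to 3 cm; compounds applied directly into paddy water, depth maintained. Visual rating versus untreated controls after 21 days, 0 (no effect) to 100 (complete control); 29.5/26.7 °C, 16-h photoperiod.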

[3] = system: early watergrass (Echinochloa oryzoides); assay: Test E flooded paddy water application; conditions: Flood, 21 days, scale 0 to 100 (0 no effect, 100 complete control)
Procedure, shortened: as §1

[4] = system: water seeded rice seedlings (Oryza sativa cv. ‘Japonica-M202’); assay: Test E flooded paddy water application; conditions: Flood, 21 days, scale 0 to 100 (0 no effect, 100 complete control)
Procedure, shortened: as §1

[5] = system: ducksalad (Heteranthera limosa); assay: Test E flooded paddy water application; conditions: Flood, 21 days, scale 0 to 100 (0 no effect, 100 complete control)
Procedure, shortened: as §1

[6] = system: bermudagrass (Cynodon dactylon); assay: Test C pre/postemergence; conditions: for pest or weed control at 31 g/ha / pest or weed control at 62 g/ha / pest or weed control at 125 g/ha / pest or weed control at 250 g/ha: Cynodon dactylon
Procedure, shortened: (§2)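 We sprayed seeded pots preemergence and 2–18 cm seedlings postemergence with test chemicals in a non-phytotoxic solvent mixture including surfactant. Greenhouse plants were visually compared with untreated controls at 12 to 14 days and scored 0 (no effect) to 100 (complete control).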

[7] = system: common ragweed (Ambrosia elatior); assay: Test C pre/postemergence; conditions: for pest or weed control at 31 g/ha / pest or weed control at 62 g/ha / pest or weed control at 125 g/ha / pest or weed control at 250 g/ha: Ambrosia artemisiifolia
Procedure, shortened: as §2

[8] = system: eastern black nightshade (Solanum ptycanthum); assay: Test C pre/postemergence; conditions: Preemergence
Procedure, shortened: as §2

[9] = Postemergence, 62 g ai/ha, scale 0 to 100 (0 no effect, 100 complete control)
[10] = Postemergence, 125 g ai/ha, scale 0 to 100 (0 no effect, 100 complete control)
[11] = Preemergence, 16 g ai/ha, scale 0 to 100, 0 no effect, 100 complete control
[12] = Preemergence, 31 g ai/ha, scale 0 to 100, 0 no effect, 100 complete control
[13] = Preemergence, 62 g ai/ha, scale 0 to 100, 0 no effect, 100 complete control
[14] = Preemergence, 125 g ai/ha, scale 0 to 100
[15] = 16 g ai/ha, scale 0 to 100, 0 no effect, 100 complete control
[16] = 31 g ai/ha, scale 0 to 100, 0 no effect, 100 complete control
[17] = 62 g ai/ha, scale 0 to 100, 0 no effect, 100 complete control
[18] = Preemergence, 250 g ai/ha, scale 0 to 100
[19] = Preemergence, 500 g ai/ha, scale 0 to 100

In the case of Nc1nc(-c2ccc(Cl)cc2)nc(C(=O)[O-])c1Cl.[Na+] [Compound 117], the “Redstem plant response rating” value ([1]; 32 g ai/ha) is reported as 0, the “Redstem plant response rating” value ([1]; 64 g ai/ha) is reported as 0 and the “Redstem plant response rating” value ([1]; 125 g ai/ha) is reported as 0. For the same compound, the “Redstem plant response rating” value ([1]; 250 g ai/ha) was 30, the “Plant response rating, Redstem” value ([1]; 16 g ai/ha) was 0 and the “Rice, Transplanted plant response rating” value ([2]; 32 g ai/ha) was 0. The “Rice, Transplanted plant response rating” value ([2]; 64 g ai/ha) was 0, the “Rice, Transplanted plant response rating” value ([2]; 125 g ai/ha) was 0 and the “Rice, Transplanted plant response rating” value ([2]; 250 g ai/ha) was 20. For the same compound, the “Plant response rating, Rice, Transplanted” value ([2]; 16 g ai/ha) was 0, the “Watergrass, Early plant response rating” value ([3]; 32 g ai/ha) was 0 and the “Watergrass, Early plant response rating” value ([3]; 64 g ai/ha) was 0. For the same compound, the “Watergrass, Early plant response rating” value ([3]; 125 g ai/ha) was 0, the “Watergrass, Early plant response rating” value ([3]; 250 g ai/ha) was 0 and the “Plant response rating, Watergrass, Early” value ([3]; 16 g ai/ha) was 0. For the same compound, the “Rice, Water Seeded plant response rating” value ([4]; 32 g ai/ha) was 0, the “Rice, Water Seeded plant response rating” value ([4]; 64 g ai/ha) was 0 and the “Rice, Water Seeded plant response rating” value ([4]; 125 g ai/ha) was 0. For the same compound, the “Rice, Water Seeded plant response rating” value ([4]; 250 g ai/ha) was 0, the “Plant response rating, Rice, Water Seeded” value ([4]; 16 g ai/ha) was 0 and the “Ducksalad plant response rating” value ([5]; 32 g ai/ha) was 100. For the same compound, the “Ducksalad plant response rating” value ([5]; 64 g ai/ha) was 100, the “Ducksalad plant response rating” value ([5]; 125 g ai/ha) was 100 and the “Ducksalad plant response rating” value ([5]; 250 g ai/ha) was 100. For the same compound, the “Plant response rating, Ducksalad” value ([5]; 16 g ai/ha) was 100, the “Plant response rating (scale of 0 to 100), Bermudagrass” value ([6]; Postemergence, 16 g ai/ha) was 60 and the “Plant response rating (scale of 0 to 100), Bermudagrass” value ([6]; Postemergence, 31 g ai/ha) was 65. For the same compound, the “Bermudagrass plant response rating” value [6, 9] was 85, the “Bermudagrass plant response rating” value [6, 10] was 90 and the “Plant response rating, Bermudagrass” value [6, 11] was 0. For the same compound, the “Plant response rating, Bermudagrass” value [6, 12] was 0, the “Plant response rating, Bermudagrass” value [6, 13] was 30 and the “Plant response rating, Bermudagrass” value [6, 14] was 65. The “Plant response rating (scale of 0 to 100), Ragweed” value ([7]; Postemergence, 16 g ai/ha) was 95, the “Plant response rating (scale of 0 to 100), Ragweed” value ([7]; Postemergence, 31 g ai/ha) was 95 and the “Plant response rating (scale of 0 to 100), Ragweed” value ([7]; Postemergence, 62 g ai/ha) was 100. For the same compound, the “Ragweed plant response rating” value [7, 10] was 100, the “Plant response rating, Ragweed” value [7, 11] was 60 and the “Plant response rating, Ragweed” value [7, 12] was 60. The “Plant response rating, Ragweed” value [7, 13] was 90, the “Plant response rating, Nightshade” value [8, 15] was 0 and the “Plant response rating, Nightshade” value [8, 16] was 5. The “Plant response rating, Nightshade” value [8, 17] was 40.
With CCOC(=O)c1nc(C2CC2)nc(N=CN(C)C)c1Br [Compound 40] the “Plant response rating, Bermudagrass” value [6, 13] was 0, the “Plant response rating, Bermudagrass” value [6, 14] was 0 and the “Plant response rating, Bermudagrass” value [6, 18] was 0. For the same compound, the “Plant response rating, Bermudagrass” value [6, 19] was 70, the “Plant response rating, Ragweed” value [7, 13] was 90 and the “Plant response rating, Ragweed” value [7, 14] was 90. For the same compound, the “Plant response rating, Ragweed” value [7, 18] was 100, the “Plant response rating, Ragweed” value [7, 19] was 100 and the “Plant response rating, Nightshade” value [8, 17] was 100. The “Plant response rating, Nightshade” value ([8]; 125 g ai/ha, scale 0 to 100) was 100, the “Plant response rating, Nightshade” value ([8]; 250 g ai/ha, scale 0 to 100) was 100 and the “Plant response rating, Nightshade” value ([8]; 500 g ai/ha, scale 0 to 100) was 100.
In the case of CCCOC(=O)c1nc(C2CC2)nc(N)c1Cl [Compound 75], the “Plant response rating, Bermudagrass” value [6, 11] is reported as 0, the “Plant response rating, Bermudagrass” value [6, 12] is reported as 0 and the “Plant response rating, Bermudagrass” value [6, 13] is reported as 0. For the same compound, the “Plant response rating, Bermudagrass” value [6, 14] was 20, the “Plant response rating, Ragweed” value [7, 11] was 20 and the “Plant response rating, Ragweed” value [7, 12] was 70. The “Plant response rating, Ragweed” value [7, 13] was 80, the “Plant response rating, Ragweed” value ([7]; Preemergence, scale 0 to 100, 0 no effect, 100 complete control) was 90 and the “Plant response rating, Nightshade” value [8, 15] was 0. For the same compound, the “Plant response rating, Nightshade” value [8, 16] was 50, the “Plant response rating, Nightshade” value [8, 17] was 70 and the “Plant response rating, Nightshade” value ([8]; scale 0 to 100, 0 no effect, 100 complete control) was 100.
CCOC(=O)C(OC(C)=O)c1nc(C2CC2)nc(N)c1Br (stereo not shown) [Compound 47] was tested, and the “Plant response rating (scale of 0 to 100), Bermudagrass” value ([6]; Postemergence, 16 g ai/ha) was 0, the “Plant response rating (scale of 0 to 100), Bermudagrass” value ([6]; Postemergence, 31 g ai/ha) was 0 and the “Bermudagrass plant response rating” value [6, 9] was 0. For the same compound, the “Bermudagrass plant response rating” value [6, 10] was 15, the “Plant response rating, Bermudagrass” value [6, 11] was 0 and the “Plant response rating, Bermudagrass” value [6, 12] was 0. The “Plant response rating, Bermudagrass” value [6, 13] was 0, the “Plant response rating, Bermudagrass” value [6, 14] was 95 and the “Plant response rating (scale of 0 to 100), Ragweed” value ([7]; Postemergence, 16 g ai/ha) was 0. The “Plant response rating (scale of 0 to 100), Ragweed” value ([7]; Postemergence, 31 g ai/ha) was 0, the “Ragweed plant response rating” value [7, 9] was 40 and the “Ragweed plant response rating” value [7, 10] was 80. For the same compound, the “Plant response rating, Ragweed” value [7, 11] was 0, the “Plant response rating, Ragweed” value [7, 13] was 45 and the “Plant response rating, Ragweed” value [7, 14] was 65. The “Plant response rating, Nightshade” value [8, 15] was 80, the “Plant response rating, Nightshade” value [8, 16] was 85 and the “Plant response rating, Nightshade” value [8, 17] was 95. For the same compound, the “Plant response rating, Nightshade” value ([8]; 125 g ai/ha, scale 0 to 100) was 100.
With COC(=O)c1nc(C(C)C)nc(N)c1Br [Compound 3] the pest or weed control at 31 g/ha ([6]; post-emergence, Postemergence, 31 g ai/ha, read-out: Plant response rating (scale of 0 to 100), Bermudagrass) was 0%, the pest or weed control at 62 g/ha ([6]; post-emergence, Postemergence, 62 g ai/ha, scale 0 to 100 (0 no effect, 100 complete control), read-out: Bermudagrass plant response rating) was 0% and the pest or weed control at 125 g/ha ([6]; post-emergence, Postemergence, 125 g ai/ha, scale 0 to 100, read-out: Plant response rating, Bermudagrass) was 0%. The pest or weed control at 250 g/ha ([6]; post-emergence, Postemergence, 250 g ai/ha, scale 0 to 100, read-out: Plant response rating, Bermudagrass) was 45%, the pest or weed control at 31 g/ha ([6]; pre-emergence, Preemergence, 31 g ai/ha, scale 0 to 100, 0 no effect, 100 complete control, read-out: Plant response rating, Bermudagrass) was 0% and the pest or weed control at 62 g/ha ([6]; pre-emergence, Preemergence, 62 g ai/ha, scale 0 to 100, 0 no effect, 100 complete control, read-out: Plant response rating, Bermudagrass) was 0%. The pest or weed control at 125 g/ha ([6]; pre-emergence, Preemergence, 125 g ai/ha, scale 0 to 100, read-out: Plant response rating, Bermudagrass) was 0%, the pest or weed control at 250 g/ha ([6]; pre-emergence, Preemergence, 250 g ai/ha, scale 0 to 100, read-out: Plant response rating, Bermudagrass) was 0% and the pest or weed control at 31 g/ha ([7]; post-emergence, Postemergence, 31 g ai/ha, read-out: Plant response rating (scale of 0 to 100), Ragweed) was 55%. For the same compound, the pest or weed control at 62 g/ha ([7]; post-emergence, Postemergence, 62 g ai/ha, scale 0 to 100 (0 no effect, 100 complete control), read-out: Ragweed plant response rating) was 75%, the pest or weed control at 125 g/ha ([7]; post-emergence, Postemergence, 125 g ai/ha, scale 0 to 100 (0 no effect, 100 complete control), read-out: Ragweed plant response rating) was 80% and the pest or weed control at 250 g/ha ([7]; post-emergence, Postemergence, 250 g ai/ha, scale 0 to 100, read-out: Plant response rating, Ragweed) was 95%. For the same compound, the pest or weed control at 31 g/ha ([7]; pre-emergence, Preemergence, 31 g ai/ha, scale 0 to 100, 0 no effect, 100 complete control, read-out: Plant response rating, Ragweed) was 0%, the pest or weed control at 62 g/ha ([7]; pre-emergence, Preemergence, 62 g ai/ha, scale 0 to 100, 0 no effect, 100 complete control, read-out: Plant response rating, Ragweed) was 0% and the pest or weed control at 125 g/ha ([7]; pre-emergence, Preemergence, 125 g ai/ha, scale 0 to 100, read-out: Plant response rating, Ragweed) was 0%. For the same compound, the pest or weed control at 250 g/ha ([7]; pre-emergence, Preemergence, 250 g ai/ha, scale 0 to 100, read-out: Plant response rating, Ragweed) was 45%, the pest or weed control at 31 g/ha ([8]; Solanum, pre-emergence, 31 g ai/ha, scale 0 to 100, 0 no effect, 100 complete control, read-out: Plant response rating, Nightshade) was 0% and the pest or weed control at 62 g/ha ([8]; Solanum, pre-emergence, 62 g ai/ha, scale 0 to 100, 0 no effect, 100 complete control, read-out: Plant response rating, Nightshade) was 0%. It also gave a pest or weed control at 125 g/ha ([8]; Solanum, pre-emergence, 125 g ai/ha, scale 0 to 100, read-out: Plant response rating, Nightshade) of 0% and a pest or weed control at 250 g/ha ([8]; Solanum, pre-emergence, 250 g ai/ha, scale 0 to 100, read-out: Plant response rating, Nightshade) of 20%.
